Where “and” joins values, the source holds several entries; their conditions need not be identical. Identical values can stand only once. Each block holds one compound with its values, some of them ahead of it.
Assays:
c-Myc-activity = assay: c-Myc-regulated luciferase reporter in SW620 cells; format: cell-based, human; parameters: CMV, Average / c-Myc, Average: unit not given here; conditions: for c-Myc, Average / CMV, Average: SW620; for c-Myc, Average: c-Myc-regulated firefly luciferase reporter; for CMV, Average: constitutive CMV promoter-regulated renilla luciferase reporter
Experimental: Luminescence was measured using the Dual-glo luciferase assay (mean ± SEM from 3 biological replicates). b SW620 cells were transfected with a c-Myc-regulated firefly luciferase expression reporter or a constitutive CMV promoter-regulated renilla luciferase reporter. Cells were treated for 24 hr with 1 or 10 µM compound 4 or the […] kinase inhibitor AZD8055 as positive control (mean ± SEM from 3 biological replicates). An ordinary one-way ANOVA with Tukey multiple comparisons test was performed comparing c-Myc-regulated firefly luciferase expression or CMV-regulated Renilla luciferase expression following the different treatments. For c-Myc-regulated firefly luciferase expression, all significant p values […]
were <0.0001. […]
Source data is located in the Supplementary Source Data file

[1] = system: cap-dependent and cap-independent (IRES) protein synthesis; assay: Bicistronic protein synthesis reporter in H1299 cells; format: cell-based, human; conditions: H1299; 100 μM, 24 hr; normalisation not stated
Experimental: H1299 cells were transfected with a biscistronic vector using Lipofectamine 3000 transfection reagent (Fisher Scientific, cat#L3000008) for 24 hr and then treated with compounds for further 24 h. Luminescence was measured after 24 h of compound treatment using the Dual Glo luciferase reporter assays as above.

[2] = target: T1, eIF4E minor variant D127N (N127) (Homo sapiens, UniProt P06730, D127N); assay: Isothermal titration calorimetry, eIF4E minor variant; format: binding; conditions: for Kd: ITC; for Kd / LE (ligand efficiency): minor variant D127N
T1 construct: made in house; host or cells: E. coli BL21-CodonPlus (DE3)-RIPL
T1 sequence (P06730 36-217 D127N): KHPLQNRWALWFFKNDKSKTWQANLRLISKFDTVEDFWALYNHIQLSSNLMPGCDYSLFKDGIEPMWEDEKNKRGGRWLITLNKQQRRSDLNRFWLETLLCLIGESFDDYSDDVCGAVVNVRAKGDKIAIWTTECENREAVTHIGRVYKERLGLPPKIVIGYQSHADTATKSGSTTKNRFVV
Experimental: ITC experiments were performed on either a MicroCal VP-ITC or a MicroCal Auto-ITC200 at 25 °C in a buffer comprising 50 mM HEPES, 100 mM NaCl, 1 mM TCEP and 5% DMSO at pH 7.5. Typical titrations on the MicroCal VP-ITC were performed using 17 × 16.4 µL injections with a 250 s spacing between each injection and with a stirring speed of 307 rpm. Typical titrations on the MicroCal Auto-ITC200 were performed using 12 × 3 µL injections with a 150 s spacing between each injection and with a stirring speed of 750 rpm. ITC data analyses were performed with Origin 7.0 software using the “One Set of Sites” model.

[3] = system: H1299 eIF4E-dTAG clones proteome; assay: Global proteome profiling (DIA LC-MS/MS); format: cell-based, human; conditions: 500 nM, 72 hr
Experimental: Cells (1 × 10^5 cells/ml) were lysed using SDS-free lysis and the lysate made up to 1 mL. Disulphide bounds were disrupted by reduction and alkylation. DTT was added to sample with a final concentration of 10 mM and incubated at 37 °C for 30 min. Iodoacetamide was then added to sample with a final concentration of 55 mM and incubated in the dark at room temperature for 30 min. The protein mixture was then enriched through a solid phase (SPE) C18 column. The C18 column was activated with 1 ml methanol at a rate of 3 drops/second, followed by 1 ml 0.1% formic acid to condition the column. The diluted protein mixture was loaded onto the column at 1 drop/sec, the column was washed with 3 ml 0.1% formic acid and enriched proteins were eluted with 800 μl 75% acetonitrile at a rate of 0.5 drops per second and the eluate was freeze-dried. The freeze-dried proteins were redissolved in 20 μl 50 mM ammonium bicarbonate and quantified according to the manufacturer’s instructions (Pierce Quantitative Fluorometric Peptide Assay cat# 23290). A small aliquot was removed for PAGE QC analysis on a 12% polyacrylamide gel. The remainder of the protein samples were digested with trypsin at a ratio of 1:20 for enzyme and proteins (w/w). The mixture was incubated for 14–16 h at 37 °C.
For DDA (Data Dependent Acquisition) library construction (Nano-LC-MS/MS) the dried peptide samples were reconstituted with mobile phase A (2% ACN, 0.1% FA), centrifuged at 20,000 g for 10 minutes, and the supernatant was taken for injection. Separation was carried out by a Thermo UltiMate 3000 UHPLC liquid chromatograph. […] The main parameters were set: ion source voltage was set to 1.9 kV, MS1 mass spectrometer scanning range was 350 ~ 1650 m/z; resolution was set to 120,000; maximal injection time (MIT) 90 ms; MS/MS collision type HCD, collision energy NCE 30; MS/MS resolution 30,000, MIT was auto mode, dynamic exclusion duration 120 seconds. The start m/z for MS/MS was fixed to auto mode. Precursor for MS/MS scan satisfied: charge range 2+ to 6 + , top 30 precursors with intensity over 2E4. AGC was: MS 300%, MS/MS 100%.
Peptides separated by liquid phase chromatography were ionized by a nanoESI source and then passed to an Orbitrap Exploris480 (Thermo Fisher Scientific, San Jose,CA) to acquire mass spectrometry data in DIA mode. The main parameters were set: ion source voltage was set to 1.9 kV, MS1 mass spectrometer scanning range was 400 ~ 1250 m/z; resolution was set to 120,000; maximal injection time (MIT) 90 ms; 400 ~ 1250 m/z was equally divided to 50 continuous windows MS/MS scan. MS/MS collision type HCD, collision energy NCE 30; MIT was auto mode. Fragment ions were scanned in Orbitrap, MS/MS resolution 30,000. AGC was: MS 300%, MS/MS 1000%.
DIA data was analysed using the iRT peptides for retention time calibration. Then, based on the target-decoy model applicable to SWATH-MS, false positive control was performed with FDR 1% to obtain significant quantitative results. MSstats was used for the statistical evaluation of significant differences in proteins or peptides from different samples. The core algorithm is linear mixed effect model that pre-processes the data according to the predefined comparison group, and then performed the significance test based on the model. Thereafter, differential protein screening was performed based on the fold change >2 and p-value < 0.05 as the criterion for the significant difference.

MCL1 protein expression = assay: Immunoblot of MCL1 in eIF4E-dTAG clones and rescue models; format: cell-based, human; conditions: eIF4E-dTAG clones
Experimental: One sample t and Wilcoxon tests (two-sided), using 100% as hypothetical control value, were performed and compared with the control in each cell line. b, c Real-time cell growth measurements monitored every 4 h over a 6-day period. Cell confluency (%) was calculated using Incucyte Zoom software and (mean ± SEM n = 3 biological replicates). Ordinary one-way ANOVA with Tukey multiple comparisons test compared treatment with the control in each cell line. […] Vinculin was used as loading control. H1299 (PAR) cell lines were treated with 1 μM dTAG^V-1 only as qualitative control. Vinculin was used as loading control. […] Significant p-values (< 0.05) are shown on the plots and the source data is located in the Source Data file.
After seeding overnight in 6 well plates (Corning, cat#353046), cells were treated with compounds for the indicated times and concentration, harvested and the cell pellet lysed on ice in cell lysis buffer (Cell Signaling, cat#9803), supplemented with 1x Halt^TM protease inhibitor cocktail (Fisher Scientific, cat#78429) and cOmplete^TM protease inhibitor cocktail (Sigma-Aldrich, cat#11836153001) for 1 hr. Protein was quantified using BCA protein kit (Fisher Scientific, cat#23225). Western blot was performed using NuPAGE^TM 4–12% Bis-Tris gels (Fisher Scientific, cat#NP0336BOX) and transferred using the Invitrogen iBLOT^TM gel transfer device system (Fisher Scientific, Cat#IB21001). […] All primary antibodies were diluted (1:1000) in 5% BSA (Sigma-Aldrich, cat#A7906) in 1x TBS and 0.1% Tween 20 (Sigma-Aldrich, cat#P1379), except for vinculin (1:2000) that was diluted in casein blocker (Sigma-Aldrich, cat#1610782). This was followed by incubation with the secondary HRP-conjugated antibodies (anti-mouse HRP, Bio-rad, Watford, UK, cat#1705047; anti-rabbit HRP, Sigma-Aldrich, cat#NA934) in casein for 1 h at RT. ECL HRP substrate (SuperSignalTM West Pico, Fisher Scientific, cat#34578) was then added to detect protein targets by chemiluminescence and images acquired using the ChemiDocTM system (Bio-Rad). Quantitative densitometry analysis of protein bands was performed using Image J v1.53 software.

Compound: COc1ccc(-c2ccc3c(N4CCOC[C@@H]4C)nc(N4CCOC[C@@H]4C)nc3n2)cc1CO [AZD8055, reference compound]
c-Myc, Average (c-Myc-activity; 1μM): 19.11 | CMV, Average (c-Myc-activity; 1μM): 86.61 | c-Myc, Average (c-Myc-activity; 10μM): 13.82 | CMV, Average (c-Myc-activity; 10μM): 130.75 | activity in c-Myc reporter assay (c-Myc-activity; SW620 cells, 1 or 10 µM, 24 hr): clearly inhibited activity

Compound: C[C@@H]1C[C@@H]([C@H](O)CC2CC(=O)NC(=O)C2)C(=O)[C@@H](C)C1 [CHX, cycloheximide, reference compound]
protein synthesis reporter signal (cap-dependent luciferase / IRES luciferase), replicate values [1]: 0.353 and 0.410 and 0.685 and 0.311 and 0.478 and 0.325

Compound: Oc1cccc(-c2ccccc2)c1 [Compound 1, [1,1'-biphenyl]-3-ol]
Kd [2]: 400 µM | LE (ligand efficiency) [2]: 0.36 (kcal/mol)/heavy atom

Kd [2]: 7400 µM | LE (ligand efficiency) [2]: 0.19 (kcal/mol)/heavy atom
Compound: O=C(O)C1(c2ccc(Cl)cc2)CCCC1 [Compound 2, 1-(4-chlorophenyl)cyclopentane-1-carboxylic acid]

Kd [2]: 20 µM | improvement in affinity ([2]; compound 3 versus compound 1): 20 fold | LE (ligand efficiency) [2]: 0.4 (kcal/mol)/heavy atom
Compound: CC(O)c1ccc(-c2ccccc2F)cc1 (stereo not drawn) [Compound 3, 1-{2'-fluoro-[1,1'-biphenyl]-4-yl}ethan-1-ol]

Compound: CC[C@H](C(=O)N1CCCC[C@H]1C(=O)O[C@H](CCc1ccc(OC)c(OC)c1)c1ccccc1OCC(=O)NCCCCCCC(=O)N[C@H](C(=O)N1C[C@H](O)C[C@H]1C(=O)N[C@@H](C)c1ccc(-c2scnc2C)cc1)C(C)(C)C)c1cc(OC)c(OC)c(OC)c1 [dTAG-v1]
Normalised signal intensity, A2M ([3]; H1299 C2-2 dTAG clone): 17.256 | Normalised signal intensity, AAAS (first entry, r5) ([3]; H1299 C2-2 dTAG clone): 16.230 | Normalised signal intensity, AAAS (second entry, r6) ([3]; H1299 C2-2 dTAG clone): 19.251 | Normalised signal intensity, AACS ([3]; H1299 C2-2 dTAG clone): 16.229 | Normalised signal intensity, A2M ([3]; H1299 C3-1 dTAG clone): 17.317 | Normalised signal intensity, AAAS (first entry, r5) ([3]; H1299 C3-1 dTAG clone): 15.976 | Normalised signal intensity, AAAS (second entry, r6) ([3]; H1299 C3-1 dTAG clone): 18.995 | Normalised signal intensity, AACS ([3]; H1299 C3-1 dTAG clone): 16.150 | Normalised signal intensity, A2M ([3]; H1299 N2-1 dTAG clone): 17.029 | Normalised signal intensity, AAAS (first entry, r5) ([3]; H1299 N2-1 dTAG clone): 15.914 | Normalised signal intensity, AAAS (second entry, r6) ([3]; H1299 N2-1 dTAG clone): 19.083 | Normalised signal intensity, AACS ([3]; H1299 N2-1 dTAG clone): 15.496 | Normalised signal intensity, A2M ([3]; H1299 N3-2 dTAG clone): 16.465 | Normalised signal intensity, AAAS (first entry, r5) ([3]; H1299 N3-2 dTAG clone): 15.682 | Normalised signal intensity, AAAS (second entry, r6) ([3]; H1299 N3-2 dTAG clone): 18.655 | Normalised signal intensity, AACS ([3]; H1299 N3-2 dTAG clone): 16.041

Compound: CC[C@H](C(=O)N1CCCC[C@H]1C(=O)O[C@H](CCc1ccc(OC)c(OC)c1)c1ccccc1OCC(=O)NCCCCCCC(=O)N[C@H](C(=O)N1C[C@@H](O)C[C@@H]1C(=O)N[C@@H](C)c1ccc(-c2scnc2C)cc1)C(C)(C)C)c1cc(OC)c(OC)c(OC)c1 [neg-dTAG^V-1, reference compound]
MCL1 protein after treatment (MCL1 protein expression): Loss of MCL1 protein was not observed
